Reference: patent US12241888B2, “Platform for assessment of the transcytosis of extracellular vesicles across endothelial barriers and uses thereof” (Children's Medical Center Corporation, priority 2018, dated 2025)

Test system: brain EC monolayer
Assay: Transcytosis assay with chemical-inhibition of endocytosis
Format: cell-based, Human
Settings: endothelial cells pretreated with increasing doses of endocytosis inhibitor
Protocol: The model was optimized for this novel application. […] The cells become confluent in 48-72 hours. […] A-2) Transcytosis assay with chemical-inhibition of endocytosis: Transcytosis occurs following the uptake of macromolecules or EVs via endocytosis. […] A variety of chemicals that target different steps of endocytosis (e.g. Dynasore, filipin, etc.) can be used to pretreat the endothelial cells in the transwell® model to inhibit endocytosis prior to the transcytosis assay. […] It is worth to note that the endocytosis of EVs depends on the interaction of EV surface proteins with endothelial cell receptors, which depending on the EV proteins involved can go through different routes of endocytosis (clathrin-dependent, clathrin-independent, etc.).

O=C(N/N=C/c1ccc(O)c(O)c1)c1cc2ccccc2cc1O [Dynasore]
fluorescence intensity in the lower chamber (EV transcytosis signal): decreased with increasing doses
